pEC50: −log10 of the molar value. Read-outs that look alike come from different tables or passages of the source. Some results are limits rather than exact numbers.

The test system of data set [1] is rhinovirus serotype 1B. Kind of data set: plaque reduction test. It is filed as cell-based. The following applies: Enterovirus. An excerpt: Plaque suppression is proportional to compound concentration.
(In general: Plaques are areas of infected cells; plaque reduction assays count them against a control.)

Data set [2] relates to rhinoviruses. Kind of data set: activity in tests (novel compounds).
Data set [3] in a line: in vivo. The following applies: mouse, po.
Procedure: Retro-orbital bleedings were performed at half, an hour, and 1 hour after administration of the dose, and hourly thereafter to 7 hours, and again at 24 hours. The plasma was harvested from these bleedings and was tested for antiviral activity using the plaque inhibition test described above. The total faeces of each mouse were collected after 24 hours and were macerated with a minimum of absolute alcohol, which liquid was then tested for antiviral activity by the plaque inhibition test. The gall bladders of the mice were removed and each was extracted with 10 μl of absolute alcohol, which extract was also tested by the plaque inhibition test.
In data set [4] the test system is viral hepatitis. The following applies: Lancet;2;1153 (1977); cited from earlier work.
Data set [5] concerns rhinoviruses. Kind of data set: in vitro tests in culture.
[6] abbreviates: rhinovirus serotype 1B, plaque reduction test, read-out: ED50 (the source's name).

`Clc1ccc(C2CCc3ccccc3O2)c(Cl)c1` (stereo not drawn) [2',4'-dichloro-, 2',4'-Dichloro-flavan]: the pEC50 in data set [1] (setting [6]) is 7.19.

`Clc1cccc(Cl)c1C1CCc2ccccc2O1` (stereo not drawn) [2',6'-dichloro-, 2',6'-Dichloroflavan]: in data set [1] (setting [6]), the pEC50 was 7.32. Take `Clc1ccccc1C1CCc2ccccc2O1` (stereo not drawn) [2'-chloro-, 2'-chloroflavan]: in data set [1] (setting [6]), the pEC50 was 6.95.

On to `Oc1ccccc1C1CCc2ccccc2O1` (stereo not drawn) [2'-hydroxyl-, 2'-hydroxyflavan], for which, in data set [1] (setting [6]), the pEC50 was 6.11.

As for `Cc1ccccc1C1CCc2ccccc2O1` (stereo not drawn) [2'-methyl-, 2'-Methylflavan], in data set [1] (setting [6]), the pEC50 was 7.82. As to `Cc1ccc2c(c1)CCC(c1ccc(Cl)c(Cl)c1)O2` (stereo not drawn) [3',4'-dichloro-6-methyl-, 3',4'-Dichloro-6-methylflavan], the pEC50 in data set [1] (setting [6]) is 7.77. Further, in data set [2], the activity in tests entry is “highest activity in tests”. Take `Clc1ccc(C2CCc3ccccc3O2)cc1Cl` (stereo not drawn) [3',4'-dichloro-, 3',4'-Dichloro-flavan]: the pEC50 in data set [1] (setting [6]) is 7.40. On the same count and under the same terms, for `Clc1cccc(C2CCc3ccccc3O2)c1` (stereo not drawn) [3'-chloro-, 3'-chloroflavan] the value was 6.57; for `COc1cccc(C2CCc3ccccc3O2)c1` (stereo not drawn) [3'-methoxyl-, 3'-methoxyflavan], 6.90; for `Cc1cccc(C2CCc3ccccc3O2)c1` (stereo not drawn) [3'-methyl-, 3'-methylflavan], 6.54. Still for that read-out and setting: for `FC(F)(F)c1cccc(C2CCc3ccccc3O2)c1` (stereo not drawn) [3'-trifluoromethyl, 3'-trifluoromethyl-flavan] the value was 5.85.

For the compound `N#Cc1ccc(C2CCc3cc(C#N)ccc3O2)cc1` (stereo not drawn) [4',6-cyano, 4',6-dicyanoflavan], the pEC50 in data set [1] (setting [6]) is below 8.00. In data set [2], the activity in tests result was “highest activity in tests”.

In the case of `Brc1ccc(C2CCc3cc(Br)ccc3O2)cc1` (stereo not drawn) [4',6-dibromo-, 4',6-dibromoflavan], the pEC50 in data set [1] (setting [6]) is 8.10. In addition, the activity in tests entry in data set [2] is listed as “highest activity in tests”. For the compound `Clc1ccc(C2CCc3cc(Cl)ccc3O2)cc1` (stereo not drawn) [4',6-dichloro-, 4',6-Dichloroflavan], the concentration at 1 h was 2 to 4 µM in data set [3] (30 mg/kg) and 10 µM in data set [3] (100 mg/kg). Take `Fc1ccc(C2CCc3cc(F)ccc3O2)cc1` (stereo not drawn) [4',6-difluoro-, 4'-6-difluoro]: in data set [1] (setting [6]), the pEC50 was 7.17.

For the compound `Ic1ccc(C2CCc3cc(I)ccc3O2)cc1` (stereo not drawn) [4',6-diiodo-, 4',6-diiodo], in data set [1] (setting [6]), the pEC50 was 7.37. In the case of `Cc1ccc(C2CCc3cc(C)ccc3O2)cc1` (stereo not drawn) [4',6-dimethyl-, 4',6-Dimethylflavan], the pEC50 in data set [1] (setting [6]) was 7.38.

Take `Clc1ccc(C2CCc3ccc(Cl)cc3O2)cc1` (stereo not drawn) [4',7-dichloro-, 4',7-Dichloroflavan]: the pEC50 in data set [1] (setting [6]) is 7.32. Consider `CN(C)c1ccc(C2CCc3ccccc3O2)cc1` (stereo not drawn) [4'-N,N--dimethylamino-, 4'-(N,N-dimethylamino)flavan], for which the pEC50 in data set [1] (setting [6]) was 6.58. Same read-out and setting: to `CC(=O)Oc1ccc(C2CCc3ccccc3O2)cc1` (stereo not drawn) [4'-acetoxyl-] belongs 7.17. Same read-out and setting: to `Nc1ccc(C2CCc3ccccc3O2)cc1` (stereo not drawn) [4'-amino-, 4'-aminoflavan] belongs 7.30; to `Clc1ccc2c(c1)CCC(c1ccc(Br)cc1)O2` (stereo not drawn) [4'-bromo-6-chloro, 4'-bromo-6-chloro-flavan], 7.68.

As for `Fc1ccc2c(c1)CCC(c1ccc(Br)cc1)O2` (stereo not drawn) [4'-bromo-6-fluoro-, 6-fluoro-4'-bromoflavan], in data set [1] (setting [6]), the pEC50 was 7.89. Moreover, the activity in tests entry in data set [2] is “highest activity in tests”.

For `Brc1ccc(C2CCc3cc(I)ccc3O2)cc1` (stereo not drawn) [4'-bromo-6-iodo], the pEC50 in data set [1] (setting [6]) was 7.12. Same read-out and setting: to `Brc1ccc(C2CCc3ccccc3O2)cc1` (stereo not drawn) [4'-bromo-, 4'-Bromoflavan] belongs 7.44. Consider `N#Cc1ccc2c(c1)CCC(c1ccc(Cl)cc1)O2` (stereo not drawn) [4'-chloro-6-cyano, 6-cyano-4'-chloroflavan], for which the pEC50 in data set [1] (setting [6]) was 8.22. Also, the activity in tests result in data set [2] is on record as “highest activity in tests”. For the compound `CCc1ccc2c(c1)CCC(c1ccc(Cl)cc1)O2` (stereo not drawn) [4'-chloro-6-ethyl-, 4'-chloro-6-ethyl-flavan], in data set [1] (setting [6]), the pEC50 is 7.28. In the case of `Fc1ccc2c(c1)CCC(c1ccc(Cl)cc1)O2` (stereo not drawn) [4'-chloro-6-fluoro-, 6-fluoro-4'-chloroflavan], the pEC50 in data set [1] (setting [6]) is 7.82. Further, the activity in tests result in data set [2] was “highest activity in tests”. On the same counts, the results for `Clc1ccc(C2CCc3cc(I)ccc3O2)cc1` (stereo not drawn) [4'-chloro-6-iodo-, 6-iodo-4'-chloroflavan] are 7.82 and “highest activity in tests”.

As to `Cc1ccc2c(c1)OC(c1ccc(Cl)cc1)CC2` (stereo not drawn) [4'-chloro-7-methyl-, 4'-chloro-7-methyl-flavan], in data set [1] (setting [6]), the pEC50 is 7.81. Also, the activity in tests result in data set [2] is reported as “highest activity in tests”.

For the compound `Clc1ccc(C2CCc3ccccc3O2)cc1` (stereo not drawn) [4'-chloro-, 4'-chloroflavan], the pEC50 in data set [1] (read-out: ED50) was 7.40. For `Fc1ccc(C2CCc3cc(I)ccc3O2)cc1` (stereo not drawn) [4'-fluoro-6-iodo, 6-iodo-4'-fluoro], the pEC50 in data set [1] (setting [6]) was 7.55. Take `Fc1ccc(C2CCc3ccccc3O2)cc1` (stereo not drawn) [4'-fluoro-, 4'-flouroflavan]: the pEC50 in data set [1] (setting [6]) was 7.76. Moreover, the activity in tests entry in data set [2] is recorded as “highest activity in tests”. In the case of `Oc1ccc(C2CCc3ccccc3O2)cc1` (stereo not drawn) [4'-hydroxy-, 4'-hydroxyflavan], the pEC50 in data set [1] (setting [6]) was 7.22. Turning to `COc1ccc(C2CCc3cc(Cl)ccc3O2)cc1` (stereo not drawn) [4'-methoxyl-6-chloro-, 6-Chloro-4'-methoxy-flavan], in data set [1] (setting [6]), the pEC50 is 7.89. Also, the activity in tests result in data set [2] is given as “highest activity in tests”. `COc1ccc(C2CCc3cc(C)ccc3O2)cc1` (stereo not drawn) [4'-methoxyl-6-methyl-, 4'-Methoxy-6-methyl-flavan]: the pEC50 in data set [1] (setting [6]) was 7.00. Still for that read-out and setting: to `COc1ccc(C2CCc3ccccc3O2)cc1` (stereo not drawn) [4'-methoxyl-, 4'-methoxyflavan] belongs 7.15.

`Cc1ccc(C2CCc3cc(Cl)ccc3O2)cc1` (stereo not drawn) [4'-methyl-6-chloro-, 6-Chloro-4'-methyl-flavan]: in data set [1] (setting [6]), the pEC50 was 8.64. In data set [2], the activity in tests entry was “highest activity in tests”. Turning to `Cc1ccc(C2CCc3ccc(Cl)cc3O2)cc1` (stereo not drawn) [4'-methyl-7-chloro-, 7-Chloro-4'-methyl-flavan], the pEC50 in data set [1] (setting [6]) was 7.08.

With `Cc1ccc(C2CCc3ccccc3O2)cc1` (stereo not drawn) [4'-methyl-, 4'-methylflavan], the pEC50 in data set [1] (setting [6]) was 7.90. Further, the activity in tests entry in data set [2] was “highest activity in tests”. As to `Clc1ccc(C2CCc3cc(Br)ccc3O2)cc1` (stereo not drawn) [6-bromo-4'-chloro-, 6-bromo-4'-chloro-flavan], the pEC50 in data set [1] (setting [6]) is 8.30.

As for `Fc1ccc(C2CCc3cc(Br)ccc3O2)cc1` (stereo not drawn) [6-bromo-4'-fluoro], the pEC50 in data set [1] (setting [6]) is 7.54. Still for that read-out and setting: to `Brc1ccc2c(c1)CCC(c1ccc(I)cc1)O2` (stereo not drawn) [6-bromo-4'-iodo-, 6-bromo-4'-iodo] belongs 7.68; to `Cc1ccc(C2CCc3cc(Br)ccc3O2)cc1` (stereo not drawn) [6-bromo-4'-methyl-, 6-bromo-4'-methylflavan], 7.74. Turning to `Fc1ccc(C2CCc3cc(Cl)ccc3O2)cc1` (stereo not drawn) [6-chloro-4'-fluoro, 6-chloro-4'-fluoro-flavan], in data set [1] (setting [6]), the pEC50 was 7.80. Further, in data set [2], the activity in tests entry is “highest activity in tests”. Regarding `CC(C)c1ccc(C2CCc3cc(Cl)ccc3O2)cc1` (stereo not drawn) [6-chloro-4-(1-methylethyl), 6-chloro 4'-isopropylflavan], the pEC50 in data set [1] (setting [6]) is 7.44. Turning to `OC1Cc2ccccc2OC1c1ccccc1` (stereo not drawn) [-3-hydroxy flavan], in data set [4], the “effect against viral hepatitis” value is given as “without success”. In the case of `Brc1ccc2c(c1)CCC(c1ccccc1)O2` (stereo not drawn) [Example 6-bromo-, 6-bromo flavan], the pEC50 in data set [1] (setting [6]) is 7.72. Still for that read-out and setting: for `Clc1ccc2c(c1)CCC(c1ccccc1)O2` (stereo not drawn) [Example 6-chloro-, 6-chloroflavan] the value was 7.30. On to `N#Cc1ccc2c(c1)CCC(c1ccccc1)O2` (stereo not drawn) [Example 6-cyano-, 6-cyano], for which the pEC50 in data set [1] (setting [6]) is 7.42. On the same count and under the same terms, to `Fc1ccc2c(c1)CCC(c1ccccc1)O2` (stereo not drawn) [Example 6-fluoro-, 6-fluoro flavan] belongs 7.70; to `Ic1ccc2c(c1)CCC(c1ccccc1)O2` (stereo not drawn) [Example 6-iodo-, 6-iodo], 7.24. For the compound `COc1ccc2c(c1)CCC(c1ccccc1)O2` (stereo not drawn) [Example 6-methoxyl-, 6-methoxyflavan], the pEC50 in data set [1] (setting [6]) is 7.90. Besides, in data set [2], the activity in tests entry is on record as “highest activity in tests”. On to `Cc1ccc2c(c1)CCC(c1ccccc1)O2` (stereo not drawn) [Example 6-methyl-, 6-methylflavan], for which the pEC50 in data set [1] (setting [6]) is 6.82. Same read-out and setting: to `Clc1ccc2c(c1)OC(c1ccccc1)CC2` (stereo not drawn) [Example 7-chloro-, 7-Chloroflavan] belongs 7.15. Consider `c1ccc(C2CCc3ccccc3O2)cc1` (stereo not drawn) [flavan, Flavan], for which the pEC50 in data set [1] (setting [6]) is 7.34. Further, the activity against rhinoviruses result in data set [5] is on record as “quite good activity against rhinoviruses”.

These data come from patent US4461907A, “Amino-substituted flavans useful as anti-viral agents” (priority 1978, dated 1984).
